What was measured:
[1] = biological target: T1, HCV polymerase (NS5B) type 1b (Hepatitis C virus genotype 1b, UniProt P26663); test: Assay of enzyme (HCV polymerase) inhibitory activity, type 1b enzyme; assay type: biochemical, HCV BK strain (type 1b)
T1 construct: a region encoding NS5B (J Virol 1991 March, 65(3), 1105-13, 544 amino acids after deletion of 47 amino acids on the C-terminal); 6xHis (C); made in house; host or cells: Escherichia coli
Outline: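 Rxn: NS5B 1b (BK, ΔC47, His6) 0.5 μg/ml; substrate RNA 5 μg/ml; ATP/GTP/CTP 50 μM, UTP 2 μM + [5,6-3H]UTP; 20 mM Tris pH 7.5, 5 mM MgCl2, 50 mM NaCl, 1 mM EDTA/DTT. 25 °C, 60 min. Stop with TCA/pyrophosphate, filter, scintillation count; IC50 vs. untreated.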

[2] = biological target: T2, HCV polymerase (NS5B) type 1a (Hepatitis C virus genotype 1a, UniProt P26664); test: Assay of enzyme (HCV polymerase) inhibitory activity, type 1a enzyme; assay type: biochemical, HCV type 1a (cloned from the blood of patients)
T2 construct: made in house; host or cells: Escherichia coli (by the 'similar method' of the 1b enzyme)
Outline: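 NS5B Δ47 C-term His6 (type 1a, 1.5 μg/ml); substrate RNA 5 μg/ml; ATP/GTP/CTP 50 μM, UTP 2 μM + [5,6-3H]UTP; Tris pH 7.5, MgCl2 5 mM; 25° C, 60 min. TCA/pyrophosphate stop, GF/B filter, scintillation. IC50 vs no-compound control.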

[3] = HCV polymerase inhibitory activity IC50, 1b, type 1b enzyme
[4] = HCV polymerase inhibitory activity IC50, 1a, type 1a enzyme
[5] = HCV polymerase inhibitory activity (IC50), 1b, type 1b enzyme 0.5 μg/ml, 25° C., 60 min
[6] = HCV polymerase inhibitory activity (IC50), 1a, type 1a enzyme 1.5 μg/ml, 25° C., 60 min

SMILES	IC50 [1, 3] [µM]	IC50 [2, 4] [µM]	IC50 [1, 5] [µM]	IC50 [2, 6] [µM]
CCCc1ccc(CNC(=O)[C@H]2CN(c3cnc(C(=O)O)cn3)CCN2S(=O)(=O)c2ccc(Br)s2)cc1 [Example 699, (R)-4-(5-bromo-thiophene-2-sulfonyl)-3-(4-propyl-benzylcarbamoyl)-3,4,5,6-tetrahydro-2H-[1,2′]bipyrazinyl-5′-carboxylic acid]	< 0.1	< 0.1	–	–
CCC(F)(F)c1ccc(CNC(=O)[C@H]2CN(C(=O)Nc3ccnc(C(N)=O)c3)CCN2S(=O)(=O)c2ccc(OC(F)(F)F)cc2)cc1 [Example 503, (R)-4-(4-trifluoromethoxy-benzenesulfonyl)-piperazine-1,3-dicarboxylic acid 1-[(2-carbamoyl-pyridin-4-yl)-amide] 3-[4-(1,1-difluoro-propyl)-benzylamide]]	–	–	< 0.1	0.1 to 1
CC(=O)N1CCN(S(=O)(=O)c2ccc(C(C)C)cc2)C(C(=O)NCc2ccccn2)C1 (centres unmarked) [Example 152, 4-acetyl-1-(4-isopropyl-benzenesulfonyl)-piperazine-2-carboxylic acid (pyridin-2-ylmethyl)-amide]	–	–	> 1	> 1
CCC(F)(F)c1ccc(CNC(=O)[C@H]2CN(c3nc4nc(C)nc(Cl)c4s3)CCN2S(=O)(=O)c2ccc(OC(F)(F)F)cc2)cc1 [Example 928, (R)-4-(7-chloro-5-methyl-thiazolo[4,5-d]pyrimidin-2-yl)-1-(4-trifluoromethoxy-benzenesulfonyl)-piperazine-2-carboxylic acid 4-(1,1-difluoro-propyl)-benzylamide]	< 0.1	< 0.1	–	–
CC(C)c1ccc(CNC(=O)[C@H]2CN(C(=O)Nc3ccc(C(=O)O)cc3)CCN2S(=O)(=O)c2ccc(C(F)(F)F)cc2)cc1 [Example 285, 4-{[(R)-3-(4-isopropyl-benzylcarbamoyl)-4-(4-trifluoromethyl-benzenesulfonyl)-piperazine-1-carbonyl]-amino}-benzoic acid]	–	–	< 0.1	0.1 to 1
Cc1nc(N2CCN(S(=O)(=O)c3ccc(OC(F)(F)F)cc3)[C@@H](C(=O)NCc3ccc(N4CCC4)nc3)C2)sc1C(=O)O [Example 389, 2-[(R)-3-[(6-azetidin-1-yl-pyridin-3-ylmethyl)-carbamoyl]-4-(4-trifluoromethoxy-benzenesulfonyl)-piperazin-1-yl]-4-methyl-thiazole-5-carboxylic acid]	–	–	< 0.1	0.1 to 1
CC(=O)N1CCN(S(=O)(=O)c2ccc(C(C)C)cc2)C(C(=O)NCc2ccc(-c3cccc(Cl)c3)cc2)C1 (centres unmarked) [Example 141, 4-acetyl-1-(4-isopropyl-benzenesulfonyl)-piperazine-2-carboxylic acid (3′-chloro-biphenyl-4-ylmethyl)-amide]	–	–	> 1	> 1
CC(=O)N1CCN(S(=O)(=O)c2ccc(C(C)C)cc2)[C@@H](C(=O)NCc2ccc(-c3ccoc3)cc2)C1 [Example 481, (R)-4-acetyl-1-(4-isopropyl-benzenesulfonyl)-piperazine-2-carboxylic acid 4-furan-3-yl-benzylamide]	–	–	0.1 to 1	0.1 to 1
CN(C)c1ccc(CNC(=O)C2CN(C(=O)CCNC(=O)OC(C)(C)C)CCN2S(=O)(=O)c2ccc(I)cc2)cc1 (centres unmarked) [Example 87, {3-[3-(4-dimethylamino-benzylcarbamoyl)-4-(4-iodo-benzenesulfonyl)-piperazin-1-yl]-3-oxo-propyl}-carbamic acid tert-butyl ester]	–	–	> 1	> 1
CC(=O)N1CCN(S(=O)(=O)c2ccc(OC(F)(F)F)cc2)[C@@H](C(=O)NCC2CCCCC2)C1 [Example 643, (R)-4-acetyl-1-(4-trifluoromethoxy-benzenesulfonyl)-piperazine-2-carboxylic acid cyclohexylmethyl-amide]	–	–	> 1	> 1
CCC(C)(C)c1ccc(S(=O)(=O)N2CCN(C(C)=O)CC2C(=O)NCc2ccc(C(F)(F)F)cc2)cc1 (centres unmarked) [Example 97, 4-acetyl-1-[4-(1,1-dimethyl-propyl)-benzenesulfonyl]-piperazine-2-carboxylic acid 4-trifluoromethyl-benzylamide]	–	–	> 1	> 1
CCCC(CCC)c1ccc(CNC(=O)C2CN(C(C)=O)CCN2S(=O)(=O)c2ccc(C(C)C)cc2)cc1 (centres unmarked) [Example 140, 4-acetyl-1-(4-isopropyl-benzenesulfonyl)-piperazine-2-carboxylic acid 4-(1-propyl-butyl)-benzylamide]	–	–	> 1	> 1
COC(F)(F)c1ccc(CNC(=O)[C@H]2CN(c3nc4cn[nH]c(=O)c4s3)CCN2S(=O)(=O)c2ccc(OC(F)(F)F)cc2)cc1 [Example 938, (R)-4-(7-oxo-6,7-dihydro-thiazolo[4,5-d]pyridazin-2-yl)-1-(4-trifluoromethoxy-benzenesulfonyl)-piperazine-2-carboxylic acid 4-(difluoro-methoxy-methyl)-benzylamide]	< 0.1	0.1 to 1	–	–
O=C(NCc1ccc(OC(F)(F)F)cc1)[C@H]1CN(c2cnc3cncc(Br)c3n2)CCN1S(=O)(=O)c1ccc(OC(F)(F)F)cc1 [Example 799, (R)-4-(8-bromo-pyrido[3,4-b]pyrazin-2-yl)-1-(4-trifluoromethoxy-benzenesulfonyl)-piperazine-2-carboxylic acid 4-trifluoromethoxy-benzylamide]	< 0.1	< 0.1	–	–
CC(C)c1ccc(CNC(=O)[C@H]2CN(C(=O)Nc3ccc(N(C)C)cc3)CCN2S(=O)(=O)c2ccc(C(F)(F)F)cc2)cc1 [Example 200, (R)-4-(4-trifluoromethyl-benzenesulfonyl)-piperazine-1,3-dicarboxylic acid 1-[(4-dimethylamino-phenyl)-amide] 3-(4-isopropyl-benzylamide)]	–	–	0.1 to 1	> 1
CC(C)c1ccc(S(=O)(=O)N2CCN(c3nc(C(=O)O)cs3)CC2C(=O)NCc2ccc(C(F)(F)F)cc2)cc1 (centres unmarked) [Example 171, 2-[4-(4-isopropyl-benzenesulfonyl)-3-(4-trifluoromethyl-benzylcarbamoyl)-piperazin-1-yl]-thiazole-4-carboxylic acid]	–	–	> 1	> 1
CC(C)c1ccc(CNC(=O)[C@H]2CN(c3cc(C(=O)O)n(C)n3)CCN2S(=O)(=O)c2ccc(C(F)(F)F)cc2)cc1 [Example 445, 5-[(R)-3-(4-isopropyl-benzylcarbamoyl)-4-(4-trifluoromethyl-benzenesulfonyl)-piperazin-1-yl]-2-methyl-2H-pyrazole-3-carboxylic acid]	–	–	< 0.1	0.1 to 1
O=C(NCc1ccc(OC(F)(F)F)cc1)[C@H]1CN(c2cnc3c(Cl)cccc3n2)CCN1S(=O)(=O)c1ccc(OC(F)(F)F)cc1 [Example 766, (R)-4-(5-chloro-quinoxalin-2-yl)-1-(4-trifluoromethoxy-benzenesulfonyl)-piperazine-2-carboxylic acid 4-trifluoromethoxy-benzylamide]	< 0.1	0.1 to 1	–	–
CC(C)c1ccc(S(=O)(=O)N2CCN(C(=O)CCO)CC2C(=O)NCc2ccc(C(F)(F)F)cc2)cc1 (centres unmarked) [Example 58, 4-(3-hydroxy-propionyl)-1-(4-isopropyl-benzenesulfonyl)-piperazine-2-carboxylic acid 4-trifluoromethyl-benzylamide]	–	–	> 1	> 1

— patent publication US8017612B2, “Piperazine compound and use thereof as a HCV polymerase inhibitor” (priority 2006, dated 2011)
